Test results as given in patent US20220332839A1, “USE OF PRG4 TO TREAT CANCER” (Lubris LLC, priority 2019, published 2022).
pIC50: −log10 of the molar value.

Tests used:
[1] = test system: MDA-MB-231 cell-derived organoids; assay: Three-dimensional Matrigel culture, proportion of spherical vs invasive organoids; assay type: cell-based, human; conditions: for TGFβ-induced invasive growth of organoids: rhPRG4 0.1, 10, 100 μg/mL, 4-MU 0.5 mM
Method: For three-dimensional culture assays, 50 μl of ice-cooled 33% growth factor-reduced Matrigel (Corning Incorporated, USA) in complete growth medium, consisting of DMEM containing 10% FBS, penicillin, streptomycin and amphotericin B (Invitrogen, Canada), was added per well of a 96-well flat bottom, ultra-low attachment plate (BD Biosciences, Canada) followed by storing the plate for 1 hour in a 5% CO2 humidified incubator at 37° C. to allow formation of a 1 mm-thick Matrigel bed in the well. Next, approximately 400 isolated MDA-MB-231 cells, suspended in 50 μl ice-cooled 50% Matrigel in complete growth medium, were layered on top of the Matrigel bed per well of the 96-well plate and incubated inside 5% CO2 humidified incubator at 37° C. One hour post addition and 37° C. incubation of Matrigel-cells suspension, 50 μl of complete growth medium was added to cover the solidified Matrigel-cells mixture. The following day and, every third day, the three-dimensional cultures received 50 μl of fresh complete growth medium without or with specified reagents as listed in the figure descriptions. On Day 8 of culture, differential interference contrast (DIC) images were captured of 8 representative organoids from each well, using light microscopy at 30× objective (Olympus IX70, Canada). […] Number of smooth surfaced organoids without any protrusions, designated as “spherical” were counted out of eight representative images in each well and then percentage of spherical organoids in each condition were plotted in bar graphs. Each experiment was performed at least three independent times for statistical analyses.

lubricin (PRG4) mRNA = assay: PRG4 mRNA expression in CAFs and ex vivo HCC specimens; assay type: cell-based, human
Method: RNA extraction and cDNA synthesis: […] of frozen ex-vivo treated HCC tissues were ground with a mortar-pestle in the presence of liquid nitrogen until a thin powder was obtained. The ground tissues were lysed with 0.5-1 ml of RLT buffer+1% (BME) and then processed according to the manufacturer's recommendations (RNeasy kit, Qiagen). […] The obtained RNA was assayed for quality and concentration using the NanoDrop 2000/2000c (Thermo Fisher Scientific). cDNA was synthetized using the High Capacity cDNA reverse transcription kit (Thermo Fisher Scientific), according to relative datasheet.
Real time PCR: One ng/μl of cDNA was used in total 20 μl reaction mix in the presence of 500 nM of each forward and reverse primer referred to a specific gene of interest, and 2×SYBR green master mix (Bio-Rad). The reaction was conducted in a CFX96 Touch Real-Time Detection System (Bio-Rad).
CAFs isolation: Immediately after surgical resection, HCC tumoral and peritumoral specimens were minced into 0.5-1 cm pieces and left in MACS Tissue Storage Solution (Miltenyi Biotec). The tissues were then further cut into smaller size pieces (1-2 mm), washed three times in Hanks balanced salt solution (HBSS), and then incubated in HBSS in the presence of type IV collagenase (Thermo Fisher Scientific) and 3 mM CaCl2 at 37° C. under gentle rotation for 4 hours. At the end of this step, the dissociation was mechanically facilitated by pipetting up-down the digested tissues with a large size orifice 50 ml pipette. The floating cells were collected and washed three times with HBSS and seeded in normal culture conditions in IMDM+20% FBS. The decanted, partially digested tissue specimens were subjected to a second round of digestion (as previously described). The resulting dissociated cells were washed with HBSS and cultured in IMDM+20% FBS. […] The presence of minimal contaminating non-fibroblastic cells (mostly cancerous hepatocytes, cholangiocytes and macrophages) was evaluated using antibodies to EpCAM, CD45, and CD11b.

[2] = test system: HCC cells (HLE, HLF, PLC/DC/19, Hep3B, PLC/PRF/5); assay: 72-hour proliferation assay, all HCC cells; assay type: cell-based, human; conditions: Homo sapiens, same experimental conditions
Method: (§1) Proliferation assay: In 100 μl complete medium, 3,000 cells were seeded in wells of a 96-well plate and left overnight to allow complete attachment. The next day (at time t=0 hours), the medium was removed and replaced with 100 μl of fresh medium in the presence/absence of Sorafenib (2.5 μM), Regorafenib (2.5 μM), rhPRG4 (12.5 to 100 μg/ml). Dimethyl sulfoxide (DMSO) and PBS+0.01% Tween-20 were used as vehicles of Sorafenib/Regorafenib, and rhPRG4, respectively. Cells in triplicate wells for each cell line were fixed at t=0 hours with 4% paraformaldehyde (PFA, pH 7.6, 10 min incubation), then stained with crystal violet (CV) and thoroughly washed to remove the excess staining. After 72 hours, the cells were fixed by adding 100 μl of 4% PFA directly to the medium (2% final PFA concentration, 20 min incubation), and processed for CV staining as previously described. Then, 100 or 200 μl of 1% sodium dodecyl-sulphate were added to the wells and the plates were left under shaking until complete CV release from stained cells. Optical density was at 595 nm wavelength measured using a plate reader.

CD44-shRNA HCC cells = assay: 72-hour proliferation assay, CD44-silenced HCC cells; assay type: cell-based, human; conditions: 2.5 μM drug; rhPRG4 0 to 100 μg/ml; p<0.05 to p<0.001
From the text: Stable CD44 silencing: HLE and HLF cell lines were transduced with lentiviral particles carrying control non-targeting (V), or specific CD44-targeting shRNA sequences (A to D), and selected with puromycin dihydrochloride (Thermo Fisher Scientific) to obtain stable CD44 silencing, according to manufacturer instructions (OriGene Technologies, Inc., Rockville, Md. 20850, USA). Control-shRNA sequence (V) and CD44-shRNA sequence B were used in all the experiments involving CD44 downregulation.
as §1, with “After 72 hours, the cells were fixed by adding 100 μl of 4% PFA directly to the medium (2% final PFA concentration, 20 min incubation), and processed for CV staining as previously described. Then, 100 or 200 μl of 1% sodium dodecyl-sulphate were added to the wells and the plates were left under shaking until complete CV release from stained cells.” left out

CD44-IgG1Fc = target: T1, CD44-IgG1Fc (Homo sapiens, UniProt P16070); assay: Direct ELISA: binding of coated macromolecules to CD44-IgG1Fc; conditions: for percentage binding to CD44 of enzyme-digested rhPRG4 compared to untreated control: coating 30 μg/mL, digestion 16 hours at 37° C.
T1 construct: purchased R & D systems
Method: High-binding microtiter plates (Corning, Sigma Aldrich, USA) were coated with rhPRG4 (Mr≅240 KDa), high molecular weight HA (HMW HA; Mr≅1,500 KDa) (R & D System, USA), medium molecular weight HA (MMW HA; Mr≅′300KDa) (R & D System) and vitronectin KDa) (Sigma Aldrich) at 400 μg/mL in PBS buffer (100 μL per well) overnight at 4° C. rhPRG4 is a full-length product produced by CHO-M cells (Lubris, Framingham, Mass., USA). Following washing with PBS+0.1% Tween 20, wells were blocked with 2% bovine serum albumin (BSA; 300 μL per well) for at least 2 hours at room temperature. CD44-IgG1Fc (R & D systems) or IgG1Fc (R & D systems), each at 1 μg/mL (100 μl per well), were added to the plate and incubated for 60 min at room temperature. Following washing with PBS+0.1% tween 20, anti-IgG1Fc-HRP (Sigma Aldrich) was added at 1:10,000 dilution (100 μL per well) and incubated for 60 min at room temp. Following washing with PBS+0.1% tween 20, the assay was developed using 1-step Turbo TMB ELISA reagent (ThermoScientific, USA) and absorbance was measured at 450 nm. The data represents an average of 4 independent assays, each with triplicate wells per group.
The concentration-dependent binding of rhPRG4, HMW HA and MMW HA to CD44 was performed by coating microtiter plates with 400, 200, 100, 20, 4, 2 and 0.1 μg/mL of the macromolecules. The assay was performed as described above. The absorbance values in the IgG1Fc wells were subtracted from the absorbance values in the CD44 IgG1Fc wells and the corrected CD44 IgG1Fc absorbance values were normalized to those of the 400 μg/mL rhPRG4 group and data was expressed as percentage binding to CD44. The concentration-dependent binding of rhPRG4, HMW HA and MMW HA to recombinant CD44 is depicted in FIG. 1B. […] The data represents an average of 4 independent assays, each with triplicate wells per group.
rhPRG4 was digested using sialidase A (Prozyme, USA), O-glycosidase (New England Biolabs, USA) or a combination of sialidase A and O-glycosidase for 16 hours at 37° C. In the sialidase A digestion, 12 μL of the enzyme (1U/200 μL) was added to rhPRG4 in a total reaction volume of 180 μL and a rhPRG4 final concentration of 300 μg/mL. In the O-glycosidase digestion, 4.8 μL of the enzyme (40million units/mL) was added to rhPRG4 in a total reaction volume of 180 μL and a rhPRG4 final concentration of 300 μg/mL under non-denaturing conditions. In the sialidase-A and O-glycosidase digestion, the enzymes were used in volumes identical to the ones stated above and incubated with rhPRG4 in a total reaction volume and final rhPRG4 concentration as stated above. The effect of sialidase-A and O-glycosidase digestions on rhPRG4 apparent molecular weight was determined by SDS-PAGE using 4-12% Bis-Tris gel (NuPage, life technologies, USA). A total of 20 μL of rhPRG4 or enzyme-digested rhPRG4 was run under reducing conditions ([…] for 60 min) followed by staining using Gelcode Blue Stain (Thermo Scientific, USA). Binding of enzymatically digested rhPRG4 to CD44 was compared to undigested rhPRG4 using the direct ELISA approach described above and using an rhPRG4 coating concentration of 30 μg/mL. Data represents the average of 4 independent experiments, each with triplicate wells per group.

MDA-MB-231 cells = assay: In vitro trans-well invasion assay; assay type: cell-based, human; conditions: 100 pM TGFβ; 400 μg/mL LMWHA
Method: Overnight 0.2% FBS-containing DMEM incubated, i.e. serum-starved, MDA-MB-231 cells were used for the transwell invasion using polycarbonate filters (24-well insert, pore size 8 μm; BD Biosciences, Canada). Prior to addition of cells, each insert was placed within a well of a 24-well tissue culture plate and equilibrated with 0.5 mL serum-free DMEM, added both to the upper and lower chambers at 37° C. for 2 h. The equilibration media was then gently removed and upper chamber surface of the insert was coated with 50 μL of 3% Matrigel and allowed to solidify at 37° C. for 1 h. 1×10^5 serum-starved MDA-MB-231 cells were resuspended in 0.5 mL of serum-free DMEM and added to the upper Matrigel-coated chamber. 500 μL complete growth medium alone or containing specific reagents, as described in the respective figure descriptions, was added to the lower chambers. Cells were allowed to invade the matrix for 12 h at 37° C. after which non-adherent cells were removed by PBS washing of cell layers on the upper chamber three times. During the second wash a cotton tip applicator was used to gently scrape away the adherent cells on the upper surface of the membrane. Invading cells were fixed by immersing the transwell inserts in 100% methanol for 10 minutes at −20° C., followed by staining with 0.5% crystal violet dye (EMD Millipore, Canada) for 1 h at room temperature. Eight randomly chosen fields of each stained membrane were imaged at 10× objective of a DIC microscope (Olympus IX70) coupled to a digital camera. Cell numbers were obtained by counting the number of crystal violet stained cells in each field using a handheld counter. The average cell numbers for all images per treatment conditions were calculated and used for further statistical analysis. Each experiment was performed at least three independent times.

T1 sequence (P16070 with tags, fused parts or gaps limits assumed): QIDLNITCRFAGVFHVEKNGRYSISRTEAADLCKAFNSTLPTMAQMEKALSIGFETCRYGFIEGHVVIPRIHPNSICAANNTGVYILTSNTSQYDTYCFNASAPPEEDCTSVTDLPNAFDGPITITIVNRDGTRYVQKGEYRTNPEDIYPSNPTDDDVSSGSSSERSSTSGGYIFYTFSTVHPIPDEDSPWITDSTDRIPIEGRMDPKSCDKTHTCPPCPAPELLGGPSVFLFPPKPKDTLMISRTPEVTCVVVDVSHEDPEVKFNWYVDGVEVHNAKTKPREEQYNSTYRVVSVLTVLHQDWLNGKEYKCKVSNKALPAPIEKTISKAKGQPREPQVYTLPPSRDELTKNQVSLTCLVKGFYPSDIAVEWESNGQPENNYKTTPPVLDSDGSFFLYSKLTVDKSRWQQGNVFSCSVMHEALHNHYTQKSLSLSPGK

Molecule: Cc1cc(=O)oc2cc(O)ccc12 [4-MU, 4-methylumbelliferone, reference compound]
- TGFβ-induced invasive growth of organoids ([1]; 100 pM TGFβ, 8-day, KI 10 μM): suppressed TGFβ-induced invasive growth

Molecule: NC(=O)c1ccc(-c2nc(-c3ccc4c(c3)OCO4)c(-c3ccccn3)[nH]2)cc1 [KI, SB431542, reference compound]
- TGFβ-induced invasive growth of organoids ([1]; 100 pM TGFβ, 8-day, KI 10 μM): suppressed the TGFβ-induced invasive growth
- LMWHA-induced invasive growth of organoids ([1]; LMWHA 10-400 μg/mL, 100 μg/mL rhPRG4, KI 10 μM): could not reverse the LMWHA effect

Molecule: Cc1cccc(-c2nn3c(c2-c2ccnc4ccc(C(N)=O)cc24)CCC3)n1 [LY2157299, galunisertib]
- expression of lubricin in comparison to controls (lubricin (PRG4) mRNA; LY2157299 alone, 48 hours): downregulated the expression of lubricin
- effect on TGFβ-enhanced expression of lubricin (lubricin (PRG4) mRNA; TGFβ plus LY2157299, 48 hours, p<0.01): offset this effect

Molecule: CNC(=O)c1cc(Oc2ccc(NC(=O)Nc3ccc(Cl)c(C(F)(F)F)c3)c(F)c2)ccn1 [Regorafenib]
- pIC50 [2]: ~5.30
- capacity in inhibiting cells proliferation in CD44 silenced cells compared to control cells (CD44-shRNA HCC cells): significantly reduced

Molecule: O-glycosidase digested rhPRG4: rhPRG4 digested using O-glycosidase for 16 hours at 37° C.
- percentage binding to CD44 of enzyme-digested rhPRG4 compared to untreated control (CD44-IgG1Fc): significant increase

Molecule: Sodium Hyaluronate [LMWHA, reference compound]
- invasive growth of organoids, stimulus alone ([1]; 100 pM TGFβ, LMWHA 10, 100 or 400 μg/mL, 8-day): increase the proportion of invasive organoids
- invasion of cells, stimulus alone vs untreated control (MDA-MB-231 cells): increased the proportion of invading cells

Molecule: sialidase-A and O-glycosidase-digested rhPRG4: rhPRG4 digested using a combination of sialidase A and O-glycosidase
- percentage binding to CD44 of enzyme-digested rhPRG4 compared to untreated control (CD44-IgG1Fc): significantly higher

Molecule: sialidase-A digested rhPRG4: rhPRG4 digested using sialidase A for 16 hours at 37° C.
- percentage binding to CD44 of enzyme-digested rhPRG4 compared to untreated control (CD44-IgG1Fc): significant increase

Molecule: vitronectin: vitronectin (Sigma Aldrich), shares sequence homology with lubricin [reference compound]
- 450 nm absorbance in the CD44-IgG1Fc group vs the IgG1Fc group (CD44-IgG1Fc; wells coated at 400 μg/mL, CD44-IgG1Fc or IgG1Fc at 1 μg/mL): no significant difference
